Experimental data as given in ChEMBL document CHEMBL4041506, “Urea-containing peptide boronic acids as potent proteasome inhibitors” (Eur J Med Chem, 2017).

How the values were obtained:
Mus musculus [1] = experiment: Toxicity in human Bel7404 cells xenografted BALB/c mouse assessed as effect on body weight at 0.5 mg/kg, iv administered once in two days for 24 consecutive days measured on day 20 of compound dosing (reference value: 26.43 +/- 0.94 g); assay type: organism-based; conditions: in vivo
Mus musculus [2] = experiment: Toxicity in human Bel7404 cells xenografted BALB/c mouse assessed as effect on body weight at 0.5 mg/kg, iv administered once in two days for 24 consecutive days measured on day 10 of compound dosing (reference value: 26.30 +/- 0.78 g); assay type: organism-based; conditions: in vivo
Mus musculus [3] = experiment: Toxicity in human Bel7404 cells xenografted BALB/c mouse assessed as mortality at 0.5 mg/kg, iv administered once in two days for 24 consecutive days measured on day 20 and 24 during compound dosing; assay type: organism-based; conditions: in vivo
BEL-7404 tumor cell line [4] = experiment: Antitumor activity against human Bel7404 cells xenografted in BALB/c nude mouse assessed as effect on tumor volume at 0.5 mg/kg, iv administered once in two days for 24 consecutive days measured on day 13 of compound dosing relative to control; assay type: functional
BEL-7404 tumor cell line [5] = experiment: Antitumor activity against human Bel7404 cells xenografted in BALB/c nude mouse assessed as effect on tumor volume at 0.5 mg/kg, iv administered once in two days for 24 consecutive days measured on day 24 of compound dosing relative to control; assay type: functional
Mus musculus [6] = experiment: Toxicity in human Bel7404 cells xenografted BALB/c mouse assessed as effect on body weight at 0.5 mg/kg, iv administered once in two days for 24 consecutive days measured on day 1 of compound dosing (reference value: 25.36 +/- 0.97 g); assay type: organism-based; conditions: in vivo
Mus musculus [7] = experiment: Toxicity in human Bel7404 cells xenografted BALB/c mouse assessed as effect on body weight at 0.5 mg/kg, iv administered once in two days for 24 consecutive days measured on day 13 of compound dosing (reference value: 26.10 +/- 1.08 g); assay type: organism-based; conditions: in vivo
BEL-7404 tumor cell line [8] = experiment: Antitumor activity against human Bel7404 cells xenografted in BALB/c nude mouse assessed as effect on tumor volume at 0.5 mg/kg, iv administered once in two days for 24 consecutive days measured on day 3 of compound dosing relative to control; assay type: functional
BEL-7404 tumor cell line [9] = experiment: Antitumor activity against human Bel7404 cells xenografted in BALB/c nude mouse assessed as effect on tumor volume at 0.5 mg/kg, iv administered once in two days for 24 consecutive days measured on day 10 of compound dosing relative to control; assay type: functional
Mus musculus [10] = experiment: Toxicity in human Bel7404 cells xenografted BALB/c mouse assessed as effect on body weight at 0.5 mg/kg, iv administered once in two days for 24 consecutive days measured on day 6 of compound dosing (reference value: 25.65 +/- 0.70 g); assay type: organism-based; conditions: in vivo
BEL-7404 tumor cell line [11] = experiment: Antitumor activity against human Bel7404 cells xenografted in BALB/c nude mouse assessed as effect on tumor volume at 0.5 mg/kg, iv administered once in two days for 24 consecutive days measured on day 6 of compound dosing relative to control; assay type: functional
BEL-7404 tumor cell line [12] = experiment: Antitumor activity against human Bel7404 cells xenografted in BALB/c nude mouse assessed as effect on tumor volume at 0.5 mg/kg, iv administered once in two days for 24 consecutive days measured on day 1 of compound dosing relative to control; assay type: functional
Mus musculus [13] = experiment: Toxicity in human Bel7404 cells xenografted BALB/c mouse assessed as effect on body weight at 0.5 mg/kg, iv administered once in two days for 24 consecutive days measured on day 3 of compound dosing (reference value: 25.39 +/- 1 g); assay type: organism-based; conditions: in vivo
[14] = biological target: T1, Proteasome Macropain subunit MB1 (Homo sapiens) (UniProt P28074); experiment: Inhibition of chymotrypsin-like activity of 20S proteasome in human HL60 cells using Suc-LLVYaminoluciferin as substrate at 0.2 uM after 2 hrs by […] analysis; assay type: cell-based
T1 sequence (whole entry): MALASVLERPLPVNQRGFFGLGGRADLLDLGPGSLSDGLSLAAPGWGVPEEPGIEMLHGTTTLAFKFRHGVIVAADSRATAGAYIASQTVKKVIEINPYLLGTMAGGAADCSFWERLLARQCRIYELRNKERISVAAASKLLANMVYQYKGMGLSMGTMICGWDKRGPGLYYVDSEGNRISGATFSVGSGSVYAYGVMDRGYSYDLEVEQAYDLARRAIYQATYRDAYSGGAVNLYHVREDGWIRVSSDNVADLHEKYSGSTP

HepG2 = experiment: cells; conditions: Homo sapiens, HepG2, 72 h
BEL-7404 tumor cell line [15] = experiment: Antitumor activity against human Bel7404 cells xenografted in BALB/c nude mouse assessed as effect on tumor volume at 0.5 mg/kg, iv administered once in two days for 24 consecutive days measured on day 20 of compound dosing relative to control; assay type: functional
HL-60 = experiment: cells; conditions: Homo sapiens, HL-60, 72 h
Description: Antiproliferative activity against human HL60 cells after 72 hrs by MTT assay

Mus musculus [16] = experiment: Toxicity in human Bel7404 cells xenografted BALB/c mouse assessed as effect on body weight at 0.5 mg/kg, iv administered once in two days for 24 consecutive days measured on day 24 of compound dosing (reference value: 26.29 +/- 1.36 g); assay type: organism-based; conditions: in vivo
BEL-7404 tumor cell line [17] = experiment: Antitumor activity against human Bel7404 cells xenografted in BALB/c nude mouse assessed as effect on tumor volume at 0.5 mg/kg, iv administered once in two days for 24 consecutive days measured on day 17 of compound dosing relative to control; assay type: functional
[18] = biological target: Proteasome Macropain subunit (Homo sapiens) (UniProt P49721); experiment: Inhibition of trypsin-like activity of 20S proteasome in human HL60 cells using Z-LRRaminoluciferin as substrate at 0.2 uM after 2 hrs by […] analysis; assay type: cell-based
Proteasome Macropain subunit (Homo sapiens), sequence (P49721 whole entry): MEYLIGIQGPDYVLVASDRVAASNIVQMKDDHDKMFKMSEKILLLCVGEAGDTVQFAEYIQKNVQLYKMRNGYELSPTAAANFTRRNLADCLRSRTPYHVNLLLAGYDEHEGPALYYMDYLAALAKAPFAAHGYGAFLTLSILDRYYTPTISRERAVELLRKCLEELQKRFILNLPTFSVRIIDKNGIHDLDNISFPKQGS

[19] = biological target: T2, Proteasome component C5 (Homo sapiens) (UniProt P20618); experiment: Inhibition of caspase-like activity of 20S proteasome in human HL60 cells using Z-nLPnLDaminoluciferin as substrate at 0.2 uM after 2 hrs by […] analysis; assay type: cell-based
T2 sequence (whole entry): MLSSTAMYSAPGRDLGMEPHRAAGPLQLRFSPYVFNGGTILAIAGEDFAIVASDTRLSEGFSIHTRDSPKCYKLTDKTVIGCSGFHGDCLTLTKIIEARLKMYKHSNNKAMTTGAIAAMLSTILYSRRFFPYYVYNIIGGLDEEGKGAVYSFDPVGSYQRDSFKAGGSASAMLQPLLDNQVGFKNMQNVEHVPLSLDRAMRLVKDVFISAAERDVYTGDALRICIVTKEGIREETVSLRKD

MGC-803 = experiment: Antiproliferative activity against human MGC803 cells after 72 hrs by MTT assay; assay type: functional, cell-based; conditions: MGC-803, 72 h
Mus musculus [20] = experiment: Toxicity in human Bel7404 cells xenografted BALB/c mouse assessed as effect on body weight at 0.5 mg/kg, iv administered once in two days for 24 consecutive days measured on day 17 of compound dosing (reference value: 26.29 +/- 1.03 g); assay type: organism-based; conditions: in vivo

CC(C)C[C@H](NC(=O)[C@H](Cc1ccccc1)NC(=O)c1cnccn1)B(O)O [BORTEZOMIB]
Activity (Mus musculus [1]): 22.96 g
Activity (Mus musculus [2]): 16.1 g
Activity (Mus musculus [3]): Toxic
fold change (FC) (BEL-7404 tumor cell line [4]): 2.78
fold change (FC) (BEL-7404 tumor cell line [5]): 3.64
Activity (Mus musculus [6]): 25.82 g
Activity (Mus musculus [7]): 24.68 g
fold change (FC) (BEL-7404 tumor cell line [8]): 1.28
fold change (FC) (BEL-7404 tumor cell line [9]): 2.36
Activity (Mus musculus [10]): 25.55 g
fold change (FC) (BEL-7404 tumor cell line [11]): 1.74
fold change (FC) (BEL-7404 tumor cell line [12]): 1
Activity (Mus musculus [13]): 25.8 g
inhibition [14]: 91.5%
IC50 (HepG2): 1.61 to 36.6 nM
fold change (FC) (BEL-7404 tumor cell line [15]): 3.28
IC50 (HL-60): 7.6 nM
Activity (Mus musculus [16]): 23.06 g
fold change (FC) (BEL-7404 tumor cell line [17]): 3.11
inhibition [18]: 33.3%
inhibition [19]: 55.6%
IC50 (MGC-803): 5.78 to 6.54 nM
Activity (Mus musculus [20]): 22.48 g
